In ChEMBL document CHEMBL1201862, “PubChem BioAssay data set” (2004):
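Growth conditions: 96-well plates. Treatment: test compound, 48 hours, 5 concentrations. Analysis: linear interpolation between bracketing concentrations; unreached endpoints set to highest concentration. At the GI50, growth is halved.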 The source made the active and inactive calls. Cut-off read from the data, not from the text of the source: active = GI50 up to about 1.1 µM and inactive = higher. Square brackets hold non-standard residues; d marks the D form. Peptide text beside a SMILES is read from it. pGlu = O=C1CC[CH](C(=O)O)N1

Assays:
Experiment in all cases: inhibition of tumour cell growth, NCI panel, 48 h
[1] = system: HT-29
[2] = system: MOLT-4
[3] = system: MDA-MB-231
[4] = system: UACC-257
[5] = system: BT-549
[6] = system: RPMI-8226
[7] = system: HOP-92
[8] = system: K562
[9] = system: SF-268
[10] = system: CCRF-CEM
[11] = system: SF-295
[12] = system: Malme-3M
[13] = system: RXF 393
[14] = system: HOP-62
[15] = system: SK-MEL-5
[16] = system: SK-MEL-28
[17] = system: A498
[18] = system: OVCAR-5
[19] = system: NCI-H522

SMILES	GI50 [1]	GI50 [2]	GI50 [3]	GI50 [4]	GI50 [5]	GI50 [6]	GI50 [7]	GI50 [8]	GI50 [9]	GI50 [10]	GI50 [11]	GI50 [12]	GI50 [13]	GI50 [14]	GI50 [15]	GI50 [16]	GI50 [17]	GI50 [18]	GI50 [19]
CO/C(N)=C(C#N)/N=C/c1cccnc1	> 100 µM (inactive)	> 100 µM (inactive)	> 100 µM (inactive)	> 100 µM (inactive)	> 100 µM (inactive)	> 100 µM (inactive)	> 100 µM (inactive)	> 100 µM (inactive)	> 100 µM (inactive)	35.8 µM (inactive)	> 100 µM (inactive)	> 100 µM (inactive)	> 100 µM (inactive)	> 100 µM (inactive)	> 100 µM (inactive)	> 100 µM (inactive)	> 100 µM (inactive)	> 100 µM (inactive)	
COC(=O)[C@]1(c2cc3ccccc3n2S(=O)(=O)c2ccccc2)CC2CCC1NC2 (stereo partly drawn)	12.4 µM (inactive)		14.1 µM (inactive)	15.8 µM (inactive)	14.5 µM (inactive)	6.65 µM (inactive)	9.25 µM (inactive)	10.4 µM (inactive)	16.8 µM (inactive)	16.1 µM (inactive)	16.9 µM (inactive)	14.9 µM (inactive)	12.2 µM (inactive)	18 µM (inactive)	13 µM (inactive)	16.8 µM (inactive)		16.1 µM (inactive)	14.3 µM (inactive)
O=C1CSC(c2c[nH]c3ccccc23)N1c1cccc([N+](=O)[O-])c1 (stereo not drawn)	> 100 µM (inactive)	> 100 µM (inactive)	56.2 µM (inactive)	> 100 µM (inactive)	> 100 µM (inactive)	> 100 µM (inactive)	32.6 µM (inactive)	76.2 µM (inactive)	> 100 µM (inactive)	> 100 µM (inactive)	66.7 µM (inactive)		> 100 µM (inactive)	> 100 µM (inactive)	84.3 µM (inactive)	> 100 µM (inactive)		> 100 µM (inactive)	95.3 µM (inactive)
CC(NC(=O)C(Cc1c[nH]cn1)NC(=O)C1CCC(=O)N1)C(N)=O (stereo not drawn) ([pGlu]-His-Ala-NH2; configuration not given here)	> 100 µM (inactive)	> 100 µM (inactive)	> 100 µM (inactive)		> 100 µM (inactive)	> 100 µM (inactive)	> 100 µM (inactive)	> 100 µM (inactive)	> 100 µM (inactive)	> 100 µM (inactive)	> 100 µM (inactive)	> 100 µM (inactive)	> 100 µM (inactive)	> 100 µM (inactive)	> 100 µM (inactive)	> 100 µM (inactive)		> 100 µM (inactive)	
Cc1ccc([N+](=O)[O-])cc1S(=O)(=O)Nc1ccc(C2=NN(c3ccc([N+](=O)[O-])cc3[N+](=O)[O-])C(c3cccs3)C2)cc1 (stereo not drawn)	25.9 µM (inactive)	13.9 µM (inactive)	15 µM (inactive)	16 µM (inactive)	20.7 µM (inactive)	10.9 µM (inactive)	16.1 µM (inactive)	17.2 µM (inactive)	16.4 µM (inactive)	24.5 µM (inactive)	25.6 µM (inactive)	25.9 µM (inactive)	18.6 µM (inactive)	19.2 µM (inactive)	11.5 µM (inactive)	56.5 µM (inactive)		43.9 µM (inactive)	10.5 µM (inactive)
CC(C)(CN1CCCCC1)C(/C=C/c1ccc(Cl)c(Cl)c1)=N\NC(=O)N/N=C(/C=C/c1ccc(Cl)c(Cl)c1)C(C)(C)CN1CCCCC1	0.361 µM (active)	2.62 µM (inactive)	2.06 µM (inactive)	1.63 µM (inactive)	> 10 µM (inactive)	1.42 µM (inactive)		0.325 µM (active)	1.57 µM (inactive)	1.76 µM (inactive)	1.71 µM (inactive)	1.55 µM (inactive)	0.659 µM (active)	1.87 µM (inactive)	1.99 µM (inactive)	1.72 µM (inactive)	1.72 µM (inactive)	1.59 µM (inactive)	1.82 µM (inactive)
O=C(CCC=C(S(=O)(=O)c1ccccc1)S(=O)(=O)c1ccccc1)c1ccccc1	4.91 µM (inactive)	3.98 µM (inactive)	8.04 µM (inactive)	8.91 µM (inactive)	5.82 µM (inactive)		14.5 µM (inactive)	3.73 µM (inactive)	4.59 µM (inactive)		22.5 µM (inactive)	4.45 µM (inactive)	4.18 µM (inactive)	16.8 µM (inactive)	6.97 µM (inactive)	12.1 µM (inactive)	17.3 µM (inactive)	10.7 µM (inactive)	2.76 µM (inactive)
COc1ccc(CC2c3cc(OC)c(OC)c(OC)c3CC[N+]2(C)C)cc1Oc1ccc(CC2c3cc4c(c(OC)c3CC[N+]2(C)C)OCO4)cc1 (stereo not drawn)	> 100 µM (inactive)	> 100 µM (inactive)	> 100 µM (inactive)	> 100 µM (inactive)	> 100 µM (inactive)		> 100 µM (inactive)	> 100 µM (inactive)	> 100 µM (inactive)	> 100 µM (inactive)	> 100 µM (inactive)	> 100 µM (inactive)			> 100 µM (inactive)	> 100 µM (inactive)	> 100 µM (inactive)	> 100 µM (inactive)	> 100 µM (inactive)
Nc1nc(Nc2ccccc2)sc1C(=O)c1c[nH]c2ccccc12	3.73 µM (inactive)	2.08 µM (inactive)	17.2 µM (inactive)	10.8 µM (inactive)	14.8 µM (inactive)	10.7 µM (inactive)	16.4 µM (inactive)	4.06 µM (inactive)	15.1 µM (inactive)	3.2 µM (inactive)		19.4 µM (inactive)	8.49 µM (inactive)	16.7 µM (inactive)	11.8 µM (inactive)	11.7 µM (inactive)	11.4 µM (inactive)	11.9 µM (inactive)	
CCc1nc2cc(F)ccc2[nH]c1=O	> 100 µM (inactive)	> 100 µM (inactive)	> 100 µM (inactive)	> 100 µM (inactive)	> 100 µM (inactive)	> 100 µM (inactive)	> 100 µM (inactive)	> 100 µM (inactive)	> 100 µM (inactive)	> 100 µM (inactive)	> 100 µM (inactive)	> 100 µM (inactive)	27.9 µM (inactive)	> 100 µM (inactive)	> 100 µM (inactive)	> 100 µM (inactive)	22.4 µM (inactive)	> 100 µM (inactive)	
Cc1[nH]n(C(=N)N)c(=O)c1CCO	> 100 µM (inactive)		> 100 µM (inactive)	> 100 µM (inactive)	> 100 µM (inactive)		> 100 µM (inactive)	> 100 µM (inactive)	> 100 µM (inactive)	> 100 µM (inactive)	> 100 µM (inactive)	> 100 µM (inactive)	> 100 µM (inactive)	> 100 µM (inactive)	> 100 µM (inactive)	> 100 µM (inactive)	> 100 µM (inactive)	> 100 µM (inactive)	> 100 µM (inactive)
COC(=O)c1ccc(/C=C(\c2ccc([N+](=O)[O-])o2)S(=O)(=O)c2ccc(NC(C)=O)cc2)o1	2.59 µM (inactive)	2.83 µM (inactive)	2.01 µM (inactive)	1.98 µM (inactive)	0.565 µM (active)	1.22 µM (inactive)	10.3 µM (inactive)	4.15 µM (inactive)	13.6 µM (inactive)		17.5 µM (inactive)	2.49 µM (inactive)	3.69 µM (inactive)	14.4 µM (inactive)	3.93 µM (inactive)	4.69 µM (inactive)		3.8 µM (inactive)	2.03 µM (inactive)
Cc1cc(S(=O)(=O)Nc2nc(N)n[nH]2)c(Cl)cc1Cl	> 10 µM (inactive)	> 10 µM (inactive)	> 10 µM (inactive)	> 10 µM (inactive)	> 10 µM (inactive)	> 10 µM (inactive)		> 10 µM (inactive)	> 10 µM (inactive)	> 10 µM (inactive)	> 10 µM (inactive)	> 10 µM (inactive)	> 10 µM (inactive)	> 10 µM (inactive)	> 10 µM (inactive)	> 10 µM (inactive)	> 10 µM (inactive)	> 10 µM (inactive)	> 10 µM (inactive)
Cc1n[nH]c(=O)n1/N=C\c1ccccc1	> 100 µM (inactive)	> 100 µM (inactive)	> 100 µM (inactive)	> 100 µM (inactive)	> 100 µM (inactive)	> 100 µM (inactive)		> 100 µM (inactive)	0.0855 µM (active)	> 100 µM (inactive)	59.2 µM (inactive)	> 100 µM (inactive)	< 0.01 µM (active)	> 100 µM (inactive)	> 100 µM (inactive)	> 100 µM (inactive)	> 100 µM (inactive)	> 100 µM (inactive)	> 100 µM (inactive)
CC(=O)/N=C1\NC(=O)/C(=C/c2ccc(Cl)cc2Cl)N1C	52 µM (inactive)	7.76 µM (inactive)	74.6 µM (inactive)	> 100 µM (inactive)	87.7 µM (inactive)		83.8 µM (inactive)		56.6 µM (inactive)	3.44 µM (inactive)	96.2 µM (inactive)		75 µM (inactive)	41.8 µM (inactive)	35.7 µM (inactive)			> 100 µM (inactive)	> 100 µM (inactive)
Cc1cc2nnc(C(N)=O)c(N)c2cc1C	> 100 µM (inactive)	> 100 µM (inactive)	> 100 µM (inactive)	> 100 µM (inactive)	> 100 µM (inactive)	> 100 µM (inactive)	26.2 µM (inactive)	> 100 µM (inactive)	30.1 µM (inactive)	> 100 µM (inactive)	> 100 µM (inactive)	38.4 µM (inactive)		39.8 µM (inactive)	> 100 µM (inactive)		> 100 µM (inactive)	> 100 µM (inactive)	20 µM (inactive)
